Assay results: publication PMC6429262, “Design and Synthesis of Novel Anti-Proliferative Emodin Derivatives and Studies on their Cell Cycle Arrest, Apoptosis Pathway and Migration” (Molecules, 2019)

Key:
HepG2 cells [1] = assay: Apoptosis analysis, annexin V-FITC/PI flow cytometry; assay type: cell-based, human; settings: for Apoptosis percentage, Early apoptosis / Apoptosis percentage, Late apoptosis / Apoptosis percentage, Overall apoptosis: mean ± SD of three experiments; for percentage of apoptotic cells: Figure 3A
Procedure: In order to verify whether compound 7a is able to induce apoptosis in HepG2 cells, we utilized FITC-Annexin V/PI staining and estimated the percentage of apoptotic cells by flow cytometry. We noted a concentration-dependent increase in the percentage of apoptotic cells when the cells were treated with compound 7a for 48 h at concentrations 2.5, 5, and 10 μM. […] Apoptosis was discriminated with the annexin V-FITC/PI test. Cells were seeded at 2 × 10^5/well in 10% FBS-DMEM into 6-well plates and treated with compounds 7a for 48 h. The cells were washed twice with cold phosphate buffered saline (PBS) and then resuspend in 1× Binding Buffer (0.1M Hepes/NaOH (pH 7.4), 1.4M NaCl, 25 mM CaCl2)) at a concentration of 1 × 10^5 cells/mL. 100 μL of the solution (1 × 10^4 cells) was transferred to a 5 mL culture tube, and 5 μL of FITC Annexin V (BD, Pharmingen, Franklin Lakes, NJ, USA) and 5 μL PI were added to each tube. The cells were gently resuspended by vortexing, and then were incubated for 30 min at RT (25 °C) in the dark. After incubation, 200 μL PBS was added to each tube. The analysis was performed with the system software (CellQuest; BD Biosciences, Franklin Lakes, NJ, USA). Analysis is as follows: lower left quadrant, viable cells (Annexin V−/PI−); lower right quadrant, early apoptotic cells (Annexin V+/PI−); upper right quadrant, late apoptotic cells (annexin V+/PI+); upper left quadrant, necrotic cells (annexin V−/PI+). The percentage of cells positive for PI and Annexin V-FITC was reported inside the quadrants.

HepG2 cells [2] = assay: Cell cycle analysis, PI staining flow cytometry; assay type: cell-based, human; design: Dip G1 (G1 phase cells) / Dip S (S phase cell population): dose or concentration left out as unconfirmed; settings: for Cell cycle distribution, G0/G1 / Cell cycle distribution, G2/M / Cell cycle distribution, S: mean ± SD of three experiments
Procedure: To further examine how compound 7a suppressed the growth of HepG2 cells, the effect of compound 7a on cell cycle distribution with different concentrations was investigated by flow cytometric analysis following staining the DNA with propidium iodide (PI).
The HepG2 cells were treated with indicated concentrations of compound 7a. After incubation for 48 h, cells were washed twice with ice-cold PBS, fixed and permeabilized with ice cold 70% ethanol at −20 °C overnight. The cells were treated with 100 μg/mL RNase A at 37 °C for 30min, then washed with ice-cold PBS and finally stained with 1mg/mL PI in the dark at 4 °C for 30 min. The cellular DNA content for the cell cycle distribution analysis was performed with the system software (CellQuest; BD Biosciences), plotting at least 30,000 events per sample. The percentage of cells in the G1, S and G2 phases of the cell cycle were determined using the ModFit LT version 5.0 software package (Verity Software, Topsham, ME, USA).

HepG2 cells [3] = assay: Wound healing assay (cell migration); assay type: cell-based; settings: Homo sapiens, 48 h, read-out: Inhibition (%) of migration (cell inhibitory rate)
Procedure: To evaluate the effect of compound 7a on cancer migration, a wound healing assay was conducted to determine whether compound 7a could prevent HepG2 cell migration. After culturing HepG2 cells for 48 h in the presence and absence of compound 7a at 0, 0.25, 0.5, and 1 μM, a pipette tip was streaked through the cell culture, resulting in a cell deficient space. The territory recovered by the HepG2 cells was used to observe the migration inhibition capability of compound 7a.
HepG2 cells were grown in DMEM medium containing growth factors at a cell density of 1 × 10^5 cells/mL for 24 h. A disposable […] plastic pipette tip was used to scratch the monolayer of cells in a streaking motion. Compounds were added to the streaked cell culture at the indicated concentrations. The streaked cells were then cultured in serum-free medium for an additional 48 h and photographed. To quantify the experimental results, the % cell inhibitory rate was calculated by the equation: cell inhibitory rate (%) = (1 − Ddrug/Dcontrol) × 100%, where Ddrug is the mean distance of cell migration in drug group and Dcontrol is the mean distance of cell migration in control group. Pictures of the initial wounded monolayers were compared with the corresponding pictures of cells at the end of the incubation, and data were presented as mean ± SD from three independent experiments.

[4] = HepG2, 48 h, representative plot

Q: Which “Apoptosis percentage, Early apoptosis” value (HepG2 cells [1]; HepG2, 2.5 μM) does the source give for `Cc1cc(O)c2c(c1)C(=O)c1cc(OCCCOC(=O)[C@@H](C)N)cc(O)c1C2=O.O=C(O)C(F)(F)F` [Compound 7a, (R)-1-(3-(4,5-Dihydroxy-7-methyl-9,10-dioxo-9,10-dihydroanthracen-2-yloxy)propoxy)-1-oxopropan-2-aminium 2,2,2-trifluoroacetate] here?
A: 2.91 ± 0.45%

Q: What about the “Apoptosis percentage, Late apoptosis” value (HepG2 cells [1]; HepG2, 2.5 μM) of the same compound?
A: 3.69 ± 0.48%

Q: And the “Apoptosis percentage, Overall apoptosis” value (HepG2 cells [1]; HepG2, 2.5 μM)?
A: 6.59 ± 0.93%

Q: What about the “percentage of apoptotic cells” value (HepG2 cells [1]; HepG2, 5 μM, 48 h) of the same compound?
A: 22.2%

Q: What about the “Apoptosis percentage, Early apoptosis” value (HepG2 cells [1]; HepG2, 5 μM) of the same compound?
A: 15.93 ± 0.76%

Q: And the “Apoptosis percentage, Late apoptosis” value (HepG2 cells [1]; HepG2, 5 μM)?
A: 7.51 ± 0.68%

Q: And the “Apoptosis percentage, Overall apoptosis” value (HepG2 cells [1]; HepG2, 5 μM)?
A: 23.450 ± 1.07%

Q: What about the “percentage of apoptotic cells” value (HepG2 cells [1]; HepG2, 10 μM, 48 h) of the same compound?
A: 50.7%

Q: What about the “Apoptosis percentage, Early apoptosis” value (HepG2 cells [1]; HepG2, 10 μM) of the same compound?
A: 37.73 ± 0.97%

Q: What about the “Apoptosis percentage, Late apoptosis” value (HepG2 cells [1]; HepG2, 10 μM) of the same compound?
A: 14.63 ± 1.17%

Q: What about the “Apoptosis percentage, Overall apoptosis” value (HepG2 cells [1]; HepG2, 10 μM) of the same compound?
A: 52.00 ± 1.41%

Q: And the viability at 2.5 µM (HepG2 cells [1]; Homo sapiens, HepG2, 2.5 μM, 48 h, representative plot, read-out: Q4 (Annexin V−/PI−, viable cells))?
A: 93.3%

Q: And the viability at 5 µM (HepG2 cells [1]; Homo sapiens, HepG2, 5.0 μM, 48 h, representative plot, read-out: Q4 (Annexin V−/PI−, viable cells))?
A: 74.2%

Q: And the viability at 10 µM (HepG2 cells [1]; Homo sapiens, HepG2, 10 μM, 48 h, representative plot, read-out: Q4 (Annexin V−/PI−, viable cells))?
A: 46.9%

Q: What about the “Cell cycle distribution, G0/G1” value (HepG2 cells [2]; HepG2, 0.25 μM) of the same compound?
A: 44.18 ± 1.79%

Q: And the “Cell cycle distribution, G2/M” value (HepG2 cells [2]; HepG2, 0.25 μM)?
A: 17.55 ± 0.90%

Q: And the “Cell cycle distribution, S” value (HepG2 cells [2]; HepG2, 0.25 μM)?
A: 38.25 ± 1.65%

Q: And the “Cell cycle distribution, G0/G1” value (HepG2 cells [2]; HepG2, 0.5 μM)?
A: 56.49 ± 1.40%

Q: What about the “Cell cycle distribution, G2/M” value (HepG2 cells [2]; HepG2, 0.5 μM) of the same compound?
A: 24.81 ± 1.79%

Q: And the “Cell cycle distribution, S” value (HepG2 cells [2]; HepG2, 0.5 μM)?
A: 19.21 ± 1.33%

Q: And the “Cell cycle distribution, G0/G1” value (HepG2 cells [2]; HepG2, 1 μM)?
A: 63.96 ± 2.42%

Q: And the “Cell cycle distribution, G2/M” value (HepG2 cells [2]; HepG2, 1 μM)?
A: 22.22 ±1.16%

Q: What about the “Cell cycle distribution, S” value (HepG2 cells [2]; HepG2, 1 μM) of the same compound?
A: 14.52 ± 1.43%

Q: And the “Dip G1 (G1 phase cells)” value (HepG2 cells [2]; [4])?
A: 63.37%

Q: What about the “Dip S (S phase cell population)” value (HepG2 cells [2]; [4]) of the same compound?
A: 14.60%

Q: What about the inhibition at 0.25 µM (HepG2 cells [3]; HepG2, 0.25 μM) of the same compound?
A: 12.6 ± 1.69%

Q: What about the inhibition at 0.5 µM (HepG2 cells [3]; HepG2, 0.5 μM) of the same compound?
A: 23.7 ± 0.59%

Q: And the inhibition at 1 µM (HepG2 cells [3]; HepG2, 1 μM)?
A: 40.2 ± 2.92%
